The source of these data is paper PMC7618453, “Calcium Competitive Inhibition of Langerin by Thiazolopyrimidinones” (Journal of Medicinal Chemistry, 2025).

A value given as a limit tells only on which side of the number the result lay.

A short description of data set [1]: Solubility assessment using 1H NMR. Particulars: DSS reference, titrated from DMSO stock into protein buffer. The format is physicochemical. How it is done:
The compounds were dissolved in 100 mM DMSO and titrated into the same buffer solution where the protein was stored for different essays. DSS was used as the reference with a concentration of 100 µM. The integration and chemical shift of the ligand signals were monitored as indicators of potential aggregation. The solubility of compounds 1, 2, 3 were reported elsewhere. 1
Figure S1. Solubility assessment of compound 3 and 5 using 1H NMR. Compound […]
with the expected ratio relative to DSS, indicating its solubility at 1 mM in aqueous […]
(1 picture or pasted object on this page, not shown here)

In data set [2] the target is T1, murine langerin CRD (Mus musculus, UniProt Q8VBX4).
T1 construct: Murine langerin CRD (amino acids: 191–331) was cloned; made in house; host or cells: E. coli BL21
T1 sequence (Q8VBX4 191-331): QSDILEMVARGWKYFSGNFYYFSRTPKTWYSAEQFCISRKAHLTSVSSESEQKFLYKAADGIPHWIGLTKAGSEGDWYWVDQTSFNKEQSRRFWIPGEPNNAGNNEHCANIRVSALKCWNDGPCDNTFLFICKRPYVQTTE
Description: 19F R2-filtered NMR assay with carbohydrate reporter ManNAcF3. Format: binding. Particulars: 25 mM MES/NaOH, 40 mM NaCl, 5 mM CaCl2, pH 6.0; 50 μM protein; read-out: K D of the carbohydrate reporter. How it is done:
^19F-NMR and ^19F-R2-filtered NMR experiments were conducted on a Bruker UltraShield 500 MHz spectrometer at 298 K. Spectra were processed in MestReNova 12.0, and data analysis was performed with GraphPad Prism version 10.2.0 for Windows (GraphPad Software, Boston, Massachusetts, USA, www.graphpad.com). Relaxation rates R 2,obs were determined with the CPMG pulse sequence, eq shown below. T represents the relaxation time, and I 0 is the integral at a T value of 0 s. The relaxation delay d 1 was set to 2.0 s, the acquisition time t acq was set to 0.87 s, and the frequency of 180° pulses νCPMG was set to 500 Hz. I=I0e^−R2,obsT 2
The KD value of the reporter was determined in a titration experiment at five concentrations [L]T with 50 μM protein. Samples were prepared via serial dilution. The K D and the R 2,b value of the reporter molecule were derived from eq by detection of the ^19F NMR relaxation rate R 2,obs in a two-parameter fit. R 2,b represents the relaxation rate in the bound state of the ligand, and p b is the bound fraction of the ligand, while [P]T represents the concentration of the receptor. The relaxation rate of the free ligand R 2,f was measured at 0.1 mM in the absence of the receptor. […]
Due to the complex equilibrium and competition effects present in the competitive binding experiments, EC50 values were utilized to quantify the inhibition degree. […]

Data set [3] concerns the target T1, murine langerin CRD. Description: ITC titration of inhibitors into murine langerin CRD. The format is binding. Particulars: for Kd: ITC, 278.15 K; for Ligand efficiency (LE): based on the best affinities from both conditions (Ca2+ present/absent), Gibbs free energy / number of non-hydrogen atoms. How it is done: Isothermal titration calorimetry experiments were performed using a PEAQ-ITC from Malvern or a Nano ITC from TA Instruments at 278.15 K. Langerin CRD in 25 mM MES/NaOH pH = 6.0 with 40 mM NaCl was injected in the sample cell (total volume 170–300 μL, receptor concentration 80–100 μM) of the device. The titrant was dissolved in the same buffer as the protein and added in 20 steps of 2.5 μL (first injection, 1.2 μL; total volume, 50 μL) while stirring at 350 rpm. The differential heat of each injection was measured and plotted against the molar ratio. All thermograms were integrated using NITPIC, the titration curves were fitted using SEDPHAT with error estimates using the confidence interval, and all figures were made in GUSSI.
For Ca^2+ titration, calcium chloride solutions were prepared in 25 mM MES/NaOH, 40 mM NaCl in the syringe. Langerin CRD was dialyzed against 25 mM MES/NaOH, 40 mM NaCl with 10 mM EDTA, and subsequently 25 mM MES/NaOH, 40 mM NaCl, to remove Ca^2+ before loading into the sample cell. The thermogram of Ca^2+ titration was fitted with the One-Site (independent) model. In the Ca^2+ present titration set up, the protein was in 25 mM MES/NaOH, 40 mM NaCl with 5 mM calcium chloride, and 5% DMSO in the sample cell. The ligand concentration was set to 0.1–2 mM, depending on the solubility, and dissolved in the same buffer as the protein. The raw data were fitted using either the One-Site (independent) model or the Competitive Binding model. Affinity and enthalpy data of Ca^2+ binding to langerin were extracted from the Ca^2+ titration and applied in the Competitive Binding model subsequently. In the Ca^2+ absent titration set up: ligand concentration was set to 0.1–2 mM, receptor concentration was set to 80–100 μM, both dissolved in 25 mM MES/NaOH, 40 mM NaCl with 5%DMSO. The thermogram was fitted with the one-site (independent) model.
Isothermal Titration Calorimetry (ITC)
The raw ITC data were initially processed using the default software provided by respective ITC instrument: MicroCal PEAQ-ITC Analysis Software 1.41 and Nanoanalyze Data Analysis 3.5.0. For MicroCal, the fitting model was set to One Set of Sites, with the following parameters: baseline option (time factor 5, points per injection 25), control parameter set to Fitted Offset, site value fixed at 1 and other parameters set to vary. For Nanoanalyze, blank titration files were used for area correction, fitting model set to independent, binding site n fixed at 1, and other parameters allowed to vary.
The raw data from both systems were further processed using NITPIC 2.1.0, baseline type set to Best Fit, with pre- and post-injection tail correction applied, integral significance level was adjusted based on the quality of each titration, and the outlier threshold was defined as twice of the standard deviation. The processed data were then analyzed in SEDPHAT 15.2b. For Ca2+ titration and ligand titration in the absence of Ca2+, the fitting model was set as Hetero Association A-B (Single-site model) with the global parameter log(Ka) and dHAB set as vary. For ligand titration in the presence of Ca2+, the fitting model was set as Competing B and C for A (Competitive binding model) with the global parameter log(KAC) and dHAC set as the data obtained from Ca2+ titration (4.336 and -8.2 kcal/mol), and log(KAB) and dHAB as vary. Experimental parameters for titration were defined as Titrating B into AC. Final presentation of the […]

Data set [4] concerns the target T1, murine langerin CRD. As to the kind of experiment: 43Ca NMR assay of Ca2+ binding to langerin in the presence of inhibitors. The settings on record: Ca2+ + langerin + 400 μM inhibitor, pH 6.0; for Chemical shift δ (Table S1, 43Ca NMR): free 0.175, langerin-bound 0.116; for Linewidth ∆ν (Table S1, 43Ca NMR): free 0.89, langerin only 1.94; for Integral (relative to the ligand present free state) (Table S1, 43Ca NMR): free 1, langerin only 0.147. Set-up: Chemical shift δ (Table S1, 43Ca NMR) / Linewidth ∆ν (Table S1, 43Ca NMR): unit not given here. How it is done: ^43Ca NMR samples contain 50 μM langerin CRD in 25 mM MES/NaOH and 40 mM NaCl, pH 6.0, with 2.5 mM ^43CaCl2 (elemental calcium enriched to 57.9%, prepared from CaCO3 by hydrolysis with conc. HClaq followed by drying under vacuum; repeated three times), 400 μM compound, and 10% D2O. The negative controls contain the same components except for the protein. The positive control has 5 mM EDTA for fully chelating 2.5 mM Ca^2+ in 25 mM MES/NaOH and 40 mM NaCl. A spectrum width between 50 and −50 ppm was chosen. NMR spectra were measured at 25 °C on a 500 MHz Bruker NEO spectrometer equipped with a BBO probe. The carrier frequency was set to 0 ppm, and spectra were recorded with a recovery delay of […] and 1024 scans. All experiments were carried out with constant concentrations, volumes, receiver gains, and numbers of averaged FIDs.
Data processing and visualization were performed using TopSpin 4.4.0 (Bruker BioSpin GmbH, Rheinstetten, Germany) and MestReNova 10.0 (Mestrelab Research, Santiago de Compostela, Spain). Spectra were processed using an exponential window function with 1.00 Hz, zero-filled to a final size of 32,768 points (from an original FID size of 3,424), and baseline-corrected using spline. Parameter extraction was performed on data fitted without a window function to ensure an unbiased representation of the spectral features. […]

For another data set, the target named is murine langerin. The settings on record: in the presence of Ca^2+; previously reported, previous screening campaign (reference number not given); read-out: previously reported affinities; cited from earlier work.
For another data set, the system named is langerin. Particulars: previous results using more elaborate structures from this series (reference number not given); cited from earlier work.
Setting [5] is: 5 mM CaCl2, 25 mM MES/NaOH pH 6.0, 40 mM NaCl, 5% DMSO, mean ± standard error of fit, read-out: K D [single-site model] (A + B↔AB), Ca^2+ present.
The mark [6] stands for this setting: 5 mM CaCl2, pH 6.0, 5% DMSO, competition between inhibitor and Ca2+ assumed, read-out: K D [competitive binding model] (A + B + C ↔ AB + C ↔ AC + B), Ca^2+ present.
The mark [7] stands for this setting: Ca2+-depleted protein, 25 mM MES/NaOH pH 6.0, 40 mM NaCl, 5% DMSO, read-out: K D [single-site model] (A + B ↔ AB), Ca^2+ absent.

Consider `O=C(O)c1cnc2ccccn2c1=O` [Compound 5, 4-oxo-4H-pyrido[1,2-a]pyrimidine-3-carboxylic acid], for which the “Solubility in aqueous buffer” value in data set [1] is listed as “partial solubility”.

On to `C#CCO[C@H]1O[C@H](CO)[C@@H](O)[C@H](O)[C@@H]1NC(=O)C(F)(F)F` [ManNAcF3], for which the Kd at murine langerin CRD [2] stood at 28000 ± 5000 µM.

The solubility is the dissolved amount per volume that the medium holds. Regarding `Cc1sc2ncc(C(=O)O)c(=O)n2c1C` [Compound 3], the Kd was 150 ± 40 µM on murine langerin CRD [3] (setting [5]), 17 ± 4 µM on murine langerin CRD [3] (setting [6]), 53 ± 8 µM at murine langerin CRD [3] (setting [7]) and 900 µM on murine langerin. The “Ligand efficiency (LE)” value at murine langerin CRD [3] turned out to be 0.44 kcal·mol^–1·HA^–1. Further, the “Chemical shift δ (Table S1, 43Ca NMR)” value at murine langerin CRD [4] is recorded as 0.139. Besides, the “Linewidth ∆ν (Table S1, 43Ca NMR)” value at murine langerin CRD [4] stood at 1.78. Besides, at murine langerin CRD [4], the “Integral (relative to the ligand present free state) (Table S1, 43Ca NMR)” value is 0.344. The same compound yielded a solubility in data set [1] (aqueous protein storage buffer, aqueous buffer, kinetic from dmso stock) not below 1000 µM.

For `Cc1csc2ncc(C(=O)O)c(=O)n12` [Compound 2], the Kd at murine langerin CRD [3] (setting [5]) is 400 ± 70 µM; at murine langerin CRD [3] (setting [6]) it was 81 ± 12 µM; on murine langerin CRD [3] (setting [7]), 19 ± 2 µM; at murine langerin, 1200 µM. Also, the “Ligand efficiency (LE)” value on murine langerin CRD [3] is given as 0.46 kcal·mol^–1·HA^–1. In addition, the “Chemical shift δ (Table S1, 43Ca NMR)” value at murine langerin CRD [4] turned out to be 0.154. Also, the “Linewidth ∆ν (Table S1, 43Ca NMR)” value on murine langerin CRD [4] was determined as 1.79. For the same compound, the “Integral (relative to the ligand present free state) (Table S1, 43Ca NMR)” value at murine langerin CRD [4] was 0.324.

`O=C(O)c1cnc2sccn2c1=O` [Compound 1]: the Kd at murine langerin CRD [3] (setting [7]) stood at 1100 ± 300 µM. The “Ligand efficiency (LE)” value at murine langerin CRD [3] turned out to be 0.31 kcal·mol^–1·HA^–1. Besides, at murine langerin CRD [4], the “Chemical shift δ (Table S1, 43Ca NMR)” value is on record as 0.173; the “Linewidth ∆ν (Table S1, 43Ca NMR)” value was determined as 2.80; the “Integral (relative to the ligand present free state) (Table S1, 43Ca NMR)” value was 0.355. Also, at murine langerin, the Kd was 700 µM.

On to `NCCNC(=O)c1cnc2ccccn2c1=O` [Compound 4, N-(2-Aminoethyl)-4-oxo-4H-pyrido[1,2-a]pyrimidine-3-carboxamide], for which the Kd on murine langerin CRD [3] (setting [5]) is 8500 ± 2000 µM. For the same compound, the Kd at murine langerin CRD [3] (setting [6]) turned out to be 480 ± 70 µM. For the same compound, the Kd at murine langerin CRD [3] (setting [7]) came to 200 ± 90 µM. Further, the “Ligand efficiency (LE)” value at murine langerin CRD [3] is given as 0.27 kcal·mol^–1·HA^–1. At murine langerin CRD [4], the “Chemical shift δ (Table S1, 43Ca NMR)” value is given as 0.174; the “Linewidth ∆ν (Table S1, 43Ca NMR)” value was 1.64; the “Integral (relative to the ligand present free state) (Table S1, 43Ca NMR)” value was 0.316.

As for `O=C(NCCc1cn2c(n1)SCC2)c1cnc2sccn2c1=O` [N-(2-(2,3-dihydroimidazo[2,1-b]-thiazol-6-yl)-ethyl)-5-oxo-5H-thiazolo[3,2-a]-pyrimidine-6-carboxamide], in the data set on langerin, the “Competition with Ca^2+” value was “did not show competition with Ca^2+”.
